pIC50: −log10 of the molar value. ≈ marks a conversion by molar mass, not a printed value.
Tests used:
Sarcoma-180 [1] = assay: Antitumor activity against mouse Sarcoma-180 cells xenografted in Swiss mouse assessed as T/C ratio at 0.5 mg/kg, po daily measured upto 7 days; format: functional; conditions: time <= 7 day
Sarcoma-180 [2] = assay: Inhibition of RNA synthesis in mouse Sarcoma-180 cells at 8 uM incubated for 60 mins by [3H]-uridine incorporation based scintillation counter analysis; format: functional; conditions: Sarcoma-180, 1 h
Sarcoma-180 [3] = assay: Inhibition of DNA synthesis in mouse Sarcoma-180 cells at 8 uM incubated for 30 mins by [3H]-thymidine incorporation based scintillation counter analysis; format: functional; conditions: Sarcoma-180, 0.5 h
Ehrlich [4] = assay: Antitumor activity against mouse EAC cell xenografted in Swiss mouse assessed as T/C ratio at 40 mg/kg, po daily measured upto 7 days; format: functional; conditions: time <= 7 day
Sarcoma-180 [5] = assay: Antitumor activity against mouse Sarcoma-180 cells xenografted in Swiss mouse assessed as T/C ratio at 40 mg/kg, po daily measured upto 7 days; format: functional; conditions: time <= 7 day
MCF7 = assay: Cytotoxicity against human MCF7 cells assessed as cell growth inhibition by CCK-8 assay; format: functional, cell-based
Shigella dysenteriae = assay: Antibacterial activity against Shigella dysenteriae assessed as inhibition of bacterial growth by two-fold serial dilution assay; format: functional
Proteus vulgaris = assay: Antibacterial activity against Proteus vulgaris assessed as inhibition of bacterial growth by two-fold serial dilution assay; format: functional
Ehrlich [6] = assay: Antitumor activity against mouse EAC cell xenografted in Swiss mouse assessed as T/C ratio at 25 mg/kg, po daily measured upto 7 days; format: functional; conditions: time <= 7 day
Sarcoma-180 [7] = assay: Antitumor activity against mouse Sarcoma-180 cells xenografted in Swiss mouse assessed as T/C ratio at 25 mg/kg, po daily measured upto 7 days; format: functional; conditions: time <= 7 day

Structure (SMILES)	T/C (Sarcoma-180 [1]) [%]	inhibition at 8 µM (Sarcoma-180 [2]) [%]	inhibition at 8 µM (Sarcoma-180 [3]) [%]	T/C (Ehrlich [4]) [%]	T/C (Sarcoma-180 [5]) [%]	pIC50 (MCF7)	MIC (Shigella dysenteriae) [µM]	MIC (Proteus vulgaris) [µM]	T/C (Ehrlich [6]) [%]	T/C (Sarcoma-180 [7]) [%]
CN(C)CCN1C(=O)c2cccc3cc([N+](=O)[O-])cc(c23)C1=O [MITONAFIDE]	187	94	99	–	–	–	–	–	–	–
CCN(N=O)C(=O)NCCN1C(=O)c2cccc3cccc(c23)C1=O	–	60	65	134	140	–	–	–	–	–
CCNc1ccc2c3c(cccc13)C(=O)N(CC(O)Cn1c([N+](=O)[O-])cnc1C)C2=O (centres undefined)	–	–	–	–	–	5.07	10 (≈ 4.23 µg/mL)	2 (≈ 0.847 µg/mL)	–	–
O=NN(CCCl)C(=O)NC1CCCCC1 [LOMUSTINE]	–	90	64	–	–	–	–	–	>240	>279

From ChEMBL document CHEMBL5244223, “l,8-Naphthalimide based DNA intercalators and anticancer agents. A systematic review from 2007 to 2017” (Eur J Med Chem, 2018)
